In paper PMC7029851, “Antibacterial activity of novel dual bacterial DNA type II topoisomerase inhibitors” (PLoS ONE, 2020):
Counter-ions that a name gives are not always drawn.

Key:
[1] = system: H. influenzae AcrA- mutant; experiment: microbe, parasite or virus in culture; format: cell-based; details: Haemophilus influenzae
Summary of the method: (§1)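 MICs against efflux-deficient mutant strains were determined by broth microdilution following CLSI guidelines.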

[2] = system: K. pneumoniae AcrAB- mutant; experiment: microbe, parasite or virus in culture; format: cell-based; details: Klebsiella pneumoniae
Summary of the method: as §1

[3] = system: E. coli 4SI; experiment: MIC, broth microdilution; format: cell-based; details: Escherichia coli, ciprofloxacin-resistant
Method: (§2) MICs were determined by the broth microdilution method (the agar dilution method was used only for N. gonorrhoeae) according to CLSI guidelines.

[4] = system: S. pyogenes APV00083; experiment: MIC, broth microdilution; format: cell-based; details: Streptococcus pyogenes; S. pyogenes APV00083, ciprofloxacin-susceptible
Method: as §2

[5] = system: A. baumannii ATCC 19606; experiment: MIC, broth microdilution; format: cell-based; details: Acinetobacter baumannii, ATCC19606; A. baumannii ATCC 19606, ciprofloxacin-susceptible
Method: as §2

[6] = system: A. baumannii APV00473; experiment: MIC, broth microdilution; format: cell-based; details: Acinetobacter baumannii; A. baumannii APV00473, ciprofloxacin-resistant
Method: as §2

[7] = system: S. pyogenes APV00074; experiment: MIC, broth microdilution; format: cell-based; details: Streptococcus pyogenes; S. pyogenes APV00074, ciprofloxacin-susceptible
Method: as §2

[8] = system: S. aureus clinical isolates (n = 10); experiment: microbe, parasite or virus in culture; format: cell-based, Staphylococcus aureus; details: S. aureus MDR clinical isolates (n = 10); for MIC50 / MIC90: Staphylococcus aureus; for MIC50: read-out: MIC50; for MIC90: read-out: MIC90
Method: (§3) The bacterial reference strains used in this study were purchased from ATCC (American Type Culture Collection) via LGC Standards (Middlesex, UK). […] Clinical MDR isolates were provided by Aptuit, the IHMA Europa Sàrl repository (Epalinges, Switzerland) and the Statens Serum Institute (Copenhagen, Denmark).
as §2
(§4) The results obtained using clinical isolates are reported as MIC50 and MIC90 values.

[9] = system: A. baumannii clinical isolates (n = 10); experiment: microbe, parasite or virus in culture; format: cell-based, Acinetobacter baumannii; details: for MIC50 / MIC90: Acinetobacter baumannii
Method: as §3, §2, §4

[10] = system: C. difficile clinical isolates (n = 21); experiment: MIC, multidrug-resistant clinical isolates; format: cell-based, Clostridium difficile; details: Clostridioides difficile, C. difficile clinical isolates (n = 21); for MIC50: read-out: MIC50; for MIC90: read-out: MIC90; for MIC: read-out: MIC range
Method: as §3, §2, §4

[11] = system: E. coli clinical isolates (n = 36); experiment: MIC, multidrug-resistant clinical isolates; format: cell-based, Escherichia coli; details: Escherichia coli, E. coli MDR clinical isolates (n = 36); for MIC50: read-out: MIC50; for MIC90: read-out: MIC90
Method: as §3, §2, §4

[12] = system: C. difficile ATCC 700057; experiment: MIC, broth microdilution; format: cell-based, Clostridium difficile; details: Clostridioides difficile, ATCC700057
Method: MICs were determined by the broth microdilution method (the agar dilution method was used only for N. gonorrhoeae) according to CLSI guidelines. […] The MIC values of antibiotics used in clinical practice were interpreted according to the susceptibility interpretive criteria reported in the appropriate CLSI Tables (M100-S25, CLSI, 2015).

`O=c1oc2ccc(F)cc2c2[nH]c(CN[C@H]3CC[C@H](n4c(=O)cnc5ncc(F)cc54)CC3)cc12` [Compound 4, 8-fluoro-2-({[trans-4-(7-fluoro-2-oxopyrido[2,3-b]pyrazin-1(2H)-yl)cyclohexyl]amino}methyl)[1]benzopyrano[4,3-b]pyrrol-4(1H)-one (formate salt)] was tested, and the MIC [1] was at most 0.016 µg/mL, the MIC [2] was 0.03 µg/mL and the MIC [3] was 0.25 µg/mL. The MIC [4] was 0.12 µg/mL, the MIC [5] was 0.5 µg/mL and the MIC [6] was 0.12 µg/mL. It also gave an MIC [7] of 0.12 µg/mL, an MIC range [8] of at most 0.06 to 0.5 µg/mL and an MIC50 [8] of 0.12 µg/mL. The MIC90 [8] was 0.5 µg/mL, the MIC range [9] was at most 0.06 to 0.5 µg/mL and the MIC50 [9] was 0.25 µg/mL. The MIC90 [9] was 0.5 µg/mL.

For `COc1cnc2ncc(=O)n([C@H]3CC[C@H](NCc4cc5c(=O)oc6ccc(F)cc6c5[nH]4)CC3)c2c1` [Compound 5, 8-Fluoro-2-({[trans-4-(7-methoxy-2-oxopyrido[2,3-b]pyrazin-1(2H)-yl)cyclohexyl]amino}methyl)[1]benzopyrano[4,3-b]pyrrol-4(1H)-one hydrochloride], the MIC [1] was at most 0.016 µg/mL, the MIC [2] was 0.03 µg/mL and the MIC50 [10] was 0.5 µg/mL. It also gave an MIC90 [10] of 1 µg/mL, an MIC [10] of 0.06 to 1 µg/mL and an MIC [3] of 0.5 µg/mL. It also gave an MIC [4] of at most 0.06 µg/mL, an MIC [5] of 1 µg/mL and an MIC [6] of 0.5 µg/mL. For the same compound, the MIC [7] was 0.12 µg/mL, the MIC range [8] was at most 0.06 to 0.5 µg/mL and the MIC50 [8] was 0.12 µg/mL. It also gave an MIC90 [8] of 0.5 µg/mL, an MIC range [9] of 0.25 to 1 µg/mL and an MIC50 [9] of 0.5 µg/mL. It also gave an MIC90 [9] of 1 µg/mL, an MIC [11] of 0.5 to 16 µg/mL and an MIC50 [11] of 2 µg/mL. For the same compound, the MIC90 [11] was 4 µg/mL and the MIC [12] was 0.25 µg/mL.

With `Cl.O=c1oc2ccc(F)cc2c2[nH]c(CN[C@H]3CC[C@H](n4c(=O)ccc5ccc(F)cc54)CC3)cc12` [Compound 6, 8-fluoro-2-({[trans-4-(7-fluoro-2-oxoquinolin-1(2H)-yl)cyclohexyl]amino}methyl)[1]benzopyrano[4,3-b]pyrrol-4(1H)-one hydrochloride] the MIC50 [10] was 0.25 µg/mL, the MIC90 [10] was 0.25 µg/mL and the MIC [10] was 0.06 to 0.25 µg/mL. For the same compound, the MIC [11] was 0.25 to 4 µg/mL, the MIC50 [11] was 2 µg/mL and the MIC90 [11] was 4 µg/mL. It also gave an MIC [12] of 0.5 µg/mL.
